From patent publication US11730712B2, “Functionalized long-chain hydrocarbon mono- and di-carboxylic acids and derivatives thereof, and their use for the prevention or treatment of disease” (ESPERVITA THERAPEUTICS, INC., priority 2021, dated 2023)

How the values were obtained:
[1] = system: bone marrow derived macrophages (BMDMs); experiment: LPS-induced glycolysis in bone marrow derived macrophages (Seahorse); assay type: cell-based; conditions: BMDMs serum-starved 2 hours, LPS (10 ng/mL)+I-1 for 4 hours; Seahorse bioanalyzer
Description: Differentiated bone marrow derived macrophages were serum-starved for 2 hours then treated with vehicle (Control), LPS (10 ng/mL) or LPS+ACLYi (I-1) for 4 hours. Glycolytic rate was assessed using Seahorse bioanalyzer.

[2] = system: Il-6 mRNA; experiment: Il-6 mRNA by RT-qPCR; assay type: cell-based
[3] = system: Il-1b mRNA; experiment: Il-1b mRNA by RT-qPCR; assay type: cell-based
[4] = system: bone marrow derived macrophages (BMDMs); experiment: LPS-induced glycolysis and inflammation in bone marrow derived macrophages; assay type: cell-based, mouse; conditions: 50 μM compound, 4 hours
Description: Macrophage were isolated as follows: femurs and tibia were collected from mice, cleaned of any soft tissues and the ends were cut off from each bone. The tibia and femur were then transferred into 1.5 mL Eppendorf tubes and the marrow was extracted via centrifugation (1900 g×5 min), resuspended in DMEM and strained through a 40 μm strainer into a 50 ml falcon tube. The strainer was rinsed with an additional 40 mL of DMEM, the cell suspension was transferred to a T175 flask, an additional 60 mL of DMEM was added and the cells were cultured at 37° C. for 4 hours. Differentiation was initiated by adding 20 mL of L929 fibroblast conditioned media and 12 mL was plated on 100 mm dishes. The cells were then left for 7 days to differentiate into macrophages. The media was then aspirated, cells were scraped in 3 mL of DMEM, then pooled and diluted at a ratio of 1:2 with DMEM. The cell suspension was plated in 12-well plates and cells were allowed to adhere overnight. […] Changes in gene expression were calculated using 2-delta cT method. Macrophage glycolytic rates were assessed using a Seahorse Bioanalyzer (XFe96, Agilent Scientific Instruments). […] The following day cells were serum-starved for 2 hours then treated with LPS (100 ng/mL) and Compound I-1 (50 μM) and glycolytic rate was analyzed (Agilent Seahorse XFp Cell Energy Phenotype Test Kit, Cat #103275-100).

[5] = Single and repeat dose plasma and tissue pharmacokinetics in male C57BL/6 mice; assay type: in vivo, mouse
Text: Materials and methods. The study involved two arms; a single dose pharmacokinetic study and a 4-day repeated-dose pharmacokinetic study. For each arm, 56 inbred male C57BL/6 mice, aged at 6-7 week, were included. All animals were purchased from Charles River Lab (CRL, MA). Upon their arrival, they were kept in special-pathogen-free environment all the time. Briefly, they were housed in group on corncob bedding (ScottPharma, MA) in Innovive® caging system (Innovive, Calif.) on a 12-hour light-dark cycle (0700-1900) at 68-74° F., and 30-70% humidity. They were allowed continually to access water and regular rodent Purina 5001 diet (ScottPharma, MA) ad libitum and to acclimate in the facility for 5 days. Animal handling and procedures were conducted under the protocols and/or guidelines approved by the Institutional Animal Care and Use Committee (IACUC) of […] Biosciences, Inc. […] Also, 2× drug vehicle (3% CMC+0.4% Tween-20) was prepared and stored at 4° C. for a week. On the day of injection, 1 ml frozen 2× aqueous stock solution (20 mg/ml drug solution) aliquot is thawed and mix with another 1 ml 2× drug vehicle (3% Carboxymethyl cellulose+0.4% Tween 20) to prepare 10 mg/ml drug solution. A 25 g mouse would receive 250 μl of 10 mg/ml solution for a dose of 100 mg/kg. Lower concentrations can be achieved by further diluting the 10 mg/ml in 1× vehicle solution with 1× vehicle prepared with milliQ water. On each dosing day, both compound stocks and 2× vehicle were warmed to room temperature and was mixed at 1:1 ratio, given to a concentration of 10 mg/mL. Then 1: 5-fold dilutions were obtained with 1× vehicle to 2 mg/mL. Dosing volume at 10 mL/kg (final dosage: 20 mg/kg) in the morning. […] Study Design. In each group 4 male 6-7-week-old C57BL/6 mice were used. Doses were administered once daily via oral gavage for either a day (single dose arm, QD×1) or 4 consecutive days (repeated dose arm, QD×4) (FIG. 26). Blood, half of brain hemisphere, and one lobe of liver samples were collected from all animals of Day 1 (QD×1 arm) at pre-dose and 0.25, 2, 4, 8, 24 and 36 hours post dose, or Day 4 (QD×4 arm) at pre-dose and 0.25, 2, 4, 8, 24 and 48 hours post dose. Blood samples were collected by cardiac puncture. The blood samples were maintained in wet ice first and centrifuged to obtain plasma (2000×g, 4° C., 5 min). All three samples from each mouse were analyzed for either Compound I-1 or Compound I-32 contents by Integrated Analytical Solutions (Berkeley, Calif.) and the results were used for the generation of the pharmacokinetic graphs. Sample collection, storage, bioanalysis and statistical analysis. All plasma and tissue samples were analyzed by discovery grade bioanalytical method developed for estimation of each test compound in plasma and tissue samples using LC-MS/MS systems. Plasma samples were prepared as follows. Three volumes of acetonitrile containing internal standard was added to one volume of plasma to precipitate proteins. Samples were centrifuged (3000×g for 10 min) and supernatant removed for analysis by LC-MS/MS. Calibration standards and quality controls were made by preparation of a 1 mg/mL stock solution in MeOH and subsequently a series of working solutions in MeOH:water (1/1, v/v) which were spiked into blank plasma to yield a series of calibration standard samples in the range of 1.0 ng/mL to 10 μg/mL. All incurred PK/PD plasma samples were treated identically to the calibration standards and quality control samples. LC-MS/MS analysis was performed utilizing multiple reaction monitoring for detection of characteristic ions for each drug candidate, additional related analytes and internal standard. Tissue samples were prepared as follows, three volumes of PBS buffer (pH 7.4) were added to one volume of each tissue sample which was then homogenized to obtain each tissue homogenate sample. […]

[6] = male, C57BL/6, mouse brain, 20 mg/kg/day PO, repeat dose QD × 4
[7] = male, C57BL/6, mouse liver, 20 mg/kg PO, single dose QD × 1
[8] = male, C57BL/6, mouse liver, 20 mg/kg/day PO, repeat dose QD × 4
[9] = male, C57BL/6, mouse plasma, 20 mg/kg PO, single dose QD × 1
[10] = male, C57BL/6, mouse plasma, 20 mg/kg/day PO, repeat dose QD × 4
[11] = mouse brain, 20 mg/kg PO, single dose QD × 1
[12] = mouse brain, 20 mg/kg/day PO, repeat dose QD × 4
[13] = mouse liver, 20 mg/kg PO, single dose QD × 1
[14] = mouse liver, 20 mg/kg/day PO, repeat dose QD × 4

| Compound | LPS-induced glycolysis (glycolytic rate) [1] | marker of inflammation, Il-6 mRNA [2] | marker of inflammation, Il-1b mRNA [3] | LPS-induced glycolysis (Seahorse) and inflammation (Il-6, Il-1b mRNA) [4] | Cmax [5, 6] | half-life [5, 7] | half-life [5, 8] | half-life [5, 9] | half-life [5, 10] | AUC0-t ([5]; mouse brain, 20 mg/kg PO, QD × 1, value in brackets with * (reanalysis)) | AUC0-t [5, 11] | AUC0-t ([5]; mouse brain, 20 mg/kg/day PO, QD × 4, value in brackets with * (reanalysis)) | AUC0-t [5, 12] | AUC0-t ([5]; mouse liver, 20 mg/kg PO, QD × 1, timepoint 0.25 h samples after reanalysis) | AUC0-t [5, 13] | AUC0-t ([5]; mouse liver, 20 mg/kg/day PO, QD × 4, timepoint 0.25 h samples after reanalysis) | AUC0-t [5, 14] | half-life ([5]; male, C57BL/6, mouse brain, 20 mg/kg PO, single dose QD × 1) | half-life [5, 6] |
| --- | --- | --- | --- | --- | --- | --- | --- | --- | --- | --- | --- | --- | --- | --- | --- | --- | --- | --- | --- |
| CC(C)(CCCCc1ccc(CCCCC(C)(C)C(=O)O)cc1)C(=O)O [Compound I-1, 6-[4-(5-carboxy-5-methylhexyl)-phenyl]-2,2-dimethylhexanoic acid] | suppression | suppression | suppression | suppression of LPS-induced glycolysis and inflammation | 169 ng/g | 9.6 h | 20.4 h | 15.3 h | 22 h | (2,091)* h*ng/g | 1,183 h*ng/g | (3,995)* h*ng/g | 1,220 h*ng/g | (469,726)* h*ng/g | 425,184 h*ng/g | (718,455)* h*ng/g | 687,414 h*ng/g |  |  |
| CC(C)(CCCCc1cccc(CCCCC(C)(C)C(=O)O)c1)C(=O)O [Compound I-32, 6-[3-(5-carboxy-5-methylhexyl)-phenyl]-2,2-dimethylhexanoic acid] |  |  |  |  |  | 13 h | 16 h | 9 h | 9.2 h |  | 1,527 h*ng/g |  | 6,304 h*ng/g |  | 405,934 h*ng/g |  | 1.01e+06 ng·h/g | 3 h | 8 h |
